Results on two molecules are retold here after patent US20250340593A1, “METHOD AND COMPOSITION FOR TREATING NEURODEGENERATIVE DISORDER” (priority 2022, published 2025).

Residues, ends and D or L forms follow the SMILES beside them.

The test system of data set [1] is hippocampal slices from 8-month-old WT and APP/PS1 mice. The experiment in a line: LTP field potential recordings in acute hippocampal slices. Further details: species or system mouse. Conditions: for LTP amplitude computed as fEPSP slope 50 to 60 min after TBS / effect on LTP responses in WT slices: peptide 500 nM for 40 min before TBS. How it is done: Animals specimens Embryonic day 17-18 (E17-18) C57BI/6JRj wild-type male and female mice were used for primary hippocampal cell cultures. Electrophysiological field potential recording experiments were performed on 8-month-old wild type and transgenic heterozygous male APP/PS1-21 mice generated on a C57Bl/6 background and expressing a transgene combining human APP with the Swedish mutation (APPKM670/671NL) and mutated L166P human presenilin 1 (PS1) under the Thyl promoter (Radde et al, 2006). Wild type and APP/PSI mice were generated as described previously (Radde et al, 2006) and genotyping was carried out to reveal the presence or absence of APP and PSI transgenes. The study was conducted in accordance with the European Community Council directive 2010/63/EU on the protection of animals used for experimental and scientific purposes. Animal care and treatment procedures were realized according to the guidelines approved by the French Ethical Committee of the Lyon 1 University (DR2013-47).
Local field potential recordings (LFP) were performed on acute coronal hippocampal slices from 8-month-old wild type and transgenic heterozygous male APP/PS1-21 mice to measure baseline synaptic response and long-term potentiation (LTP) of Schaffer collaterals to CAI pyramidal cell synapses. Hippocampal slices (400 μm thick) were cut using a vibratome (Leica VT1200S) and incubated at room temperature in artificial cerebrospinal fluid (ACSF) containing (in mM): 124 NaCl, 10 glucose, 1.25 NaH2PO4, 2.5 KCl, 26 NaHCO3, 1.3 MgCl2, and 2.5 CaCl2, bubbled with 95% 02 and 5% CO2, pH 7.4) for 1 h prior to recording. Field excitatory postsynaptic potentials (fEPSPs) were recorded extracellularly in stratum radiatum of CAI region of the dorsal hippocampus in presence of gammaaminobutyric acid (GABA)-A receptor antagonist picrotoxin (100 μM). Electrical stimulation was realized with a bipolar tungsten electrode placed in CAI stratum radiatum and fEPSPs were measured using borosilicate glass microelectrodes (˜1-3 M (2) filled with ACSF. The tip of the recording electrode was located close to the slice surface. LFP were amplified and low-pass filtered at 3 kHz using a differential amplifier (X1000, WPI) and data acquisition and analyses were carried out using a National Instrument interface coupled with Elphy software (G. Sadoc, CNRS, France). LFP were sampled at 10 kHz and fEPSPs initial slope was computed to quantify synaptic responses. After baseline recordings of synaptic activity evoked at 0.2 Hz for at least 10 minutes, slices were incubated in ACSF or treated with the CP or BP at 500 nM for 40 min before inducing LTP with the theta burst stimulation (TBS). The effects of the peptides on synaptic responses were tested in a series of pilot experiments on mice of both genotypes. […] TBS consisted of 10 trains separated by 30 s, each train composed of 6 bursts at 5 Hz and each burst providing 4 pulses at 100 Hz. Before LTP induction, precautions were taken to ensure that approximately the same amplitude of fEPSPs was obtained in baseline for the different experiments to achieve the same level of cooperativity in each group. After LTP induction, fEPSPs were recorded for at least 60 min.

The test system of data set [2] is DIV 21 primary hippocampal neurons. Briefly: Aβ synaptic targeting in primary hippocampal neurons. The data set is classed as cell-based, mouse. Conditions: 500 nM biotinylated HMW Aβo enriched preparation aggregated 2 h with equimolar peptide; neurons treated 30 min. The protocol:
Primary hippocampal neuron cultures were prepared from E17-18 C57Bl/6JRj mice. Briefly, hippocampi were removed, cut into pieces in Hank's buffered salt solution (HBSS), digested in HBSS supplemented with trypsin (0.25% v/v) and rinsed in HBSS and BSA 0.2%. Next, hippocampi were triturated in Neurobasal medium without phenol red supplemented with L-glutamine (2 mM), 2% B27, 1% penicillin-streptomycin (10000 U/mL). Hippocampal neurons were then plated onto poly-L-lysine coated coverslips (0.5 mg/ml) at a low density (15×10^3 cells/cm2) for synaptic targeting experiments. Neurons were subsequently cultured for 21 DIV in supplemented Neurobasal medium at 37° C. under 5% CO2, one-half of the media being changed once a week. […]
Treated hippocampal neuron cultures were fixed with 4% paraformaldehyde in 0.1 M phosphate buffer at RT prior to immunostaining. After a blocking step in non-permeabilizing condition (PBS, 1% BSA) surface-bound biotinylated Aβ was detected with fluorescently tagged streptavidin (Alexa Fluor 647, Invitrogen) incubated for 3 h at RT. […]
Immunostainings images were obtained using a confocal Zeiss LSM 880 AiryScan microscope equipped with two diode lasers (405, 561 nm), a laser gaz argon (488 nm) and a laser gaz He/Ne ([…]), a 63x objective and an additional zoom factor (3x). […] Biotinylated Aβ clusters were quantified in each ROI in collapsed Z-stacks.

In the case of `CC(C)[C@H](NC(=O)[C@H](Cc1ccc(O)cc1)NC(=O)[C@@H](NC(=O)[C@H](CO)NC(=O)[C@H](Cc1c[nH]c2ccccc12)NC(=O)[C@H](CO)NC(=O)[C@H](CCCCN)NC(=O)[C@H](Cc1ccc(O)cc1)NC(=O)[C@H](CCCNC(=N)N)NC(=O)[C@H](CO)NC(=O)[C@H](CCCCN)NC(=O)[C@H](CCCCN)NC(=O)[C@H](CCCNC(=N)N)NC(=O)[C@@H](N)CCCCN)C(C)C)C(=O)NCC(=O)O` [BP, KRKKSRYKSWSVYVG] (H-KRKKSRYKSWSVYVG-OH; N-terminus and C-terminus assumed), the “change in baseline synaptic responses before LTP induction” value in data set [1] (500 nM, during the 40 min prior to LTP induction, mice of both genotypes) was “did not induce a change”. Further, the “LTP amplitude computed as fEPSP slope 50 to 60 min after TBS” value in data set [1] (APP/PS1 slices) came to 226.7±40.5%. For the same molecule, in data set [1] (WT slices), the “effect on LTP responses in WT slices” value is given as “does not alter LTP responses”. Further, the “synapses colocalized with Aβ” value in data set [2] is listed as “only a small proportion”.
Turning to NDYKDDDDKGAAA [CP, reference compound], the “LTP amplitude computed as fEPSP slope 50 to 60 min after TBS” value was 119.8±9.1% in data set [1] (APP/PS1 slices) and 191.4±18.3% in data set [1] (WT slices). Also, the “effect on LTP responses in WT slices” value in data set [1] (WT slices) is “does not alter LTP responses”. Also, in data set [2], the “synapses colocalized with Aβ” value is recorded as approximately 40%.
